Test results from PubChem BioAssay AID1963972 (Molecular Pharmacology Branch, DTP, NCI, 2024).

Test system: 945468-187-T-J2-PDC spheroids viability
Assay: Anticancer human tumor 945468-187-T-J2-PDC patient-derived rectal carcinoma cell line growth inhibition [PI3K]
Settings: spheroids with HUVEC and MSC; for IC50: curve of first compound; for viability, T/C: stronger effect = lower value
In short: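 Targeted small molecules plus PI3K inhibitors, half-log dose series from Cmax (default top 10 microM), were applied to heterotypic spheroids of cancer cells with HUVEC and MSCs. Viability indicated growth inhibition.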
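Also: spheroids exposed to compounds for seven days before reading.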

IC50 (second compound 0.0316 µM): > 10 µM
IC50 (second compound 0.1 µM): > 10 µM
IC50 (second compound 0.316 µM): > 10 µM
IC50 (second compound 1 µM): > 10 µM
IC50 (second compound 3.16 µM): > 10 µM
IC50 (second compound 10 µM): > 10 µM
SMILES: Cn1nccc1Nc1nccc(-c2ccn(C(CO)c3ccc(Cl)c(F)c3)c(=O)c2)n1 (configuration not stated) + Cc1nc(NC(=O)N2CCCC2C(N)=O)sc1-c1ccnc(C(C)(C)C(F)(F)F)c1
viability, T/C (second compound 0.0316 µM, first compound 0.0316 µM): 107%
viability, T/C (second compound 0.0316 µM, first compound 0.1 µM): 116%
viability, T/C (second compound 0.0316 µM, first compound 0.316 µM): 88.5%
viability, T/C (second compound 0.0316 µM, first compound 1 µM): 79.3%
viability, T/C (second compound 0.0316 µM, first compound 3.16 µM): 103%
viability, T/C (second compound 0.0316 µM, first compound 10 µM): 72.8%
viability, T/C (second compound 0.1 µM, first compound 0.0316 µM): 112%
viability, T/C (second compound 0.1 µM, first compound 0.1 µM): 110%
viability, T/C (second compound 0.1 µM, first compound 0.316 µM): 108%
viability, T/C (second compound 0.1 µM, first compound 1 µM): 105%
viability, T/C (second compound 0.1 µM, first compound 3.16 µM): 87.4%
viability, T/C (second compound 0.1 µM, first compound 10 µM): 82.1%
viability, T/C (second compound 0.316 µM, first compound 0.0316 µM): 129%
viability, T/C (second compound 0.316 µM, first compound 0.1 µM): 107%
viability, T/C (second compound 0.316 µM, first compound 0.316 µM): 98.1%
viability, T/C (second compound 0.316 µM, first compound 1 µM): 89.2%
viability, T/C (second compound 0.316 µM, first compound 3.16 µM): 105%
viability, T/C (second compound 0.316 µM, first compound 10 µM): 80.7%
viability, T/C (second compound 1 µM, first compound 0.0316 µM): 118%
viability, T/C (second compound 1 µM, first compound 0.1 µM): 108%
viability, T/C (second compound 1 µM, first compound 0.316 µM): 104%
viability, T/C (second compound 1 µM, first compound 1 µM): 119%
viability, T/C (second compound 1 µM, first compound 3.16 µM): 85.2%
viability, T/C (second compound 1 µM, first compound 10 µM): 74.8%
viability, T/C (second compound 3.16 µM, first compound 0.0316 µM): 85.9%
viability, T/C (second compound 3.16 µM, first compound 0.1 µM): 119%
viability, T/C (second compound 3.16 µM, first compound 0.316 µM): 85.6%
viability, T/C (second compound 3.16 µM, first compound 1 µM): 82.8%
viability, T/C (second compound 3.16 µM, first compound 3.16 µM): 79.7%
viability, T/C (second compound 3.16 µM, first compound 10 µM): 88.5%
viability, T/C (second compound 10 µM, first compound 0.0316 µM): 76.8%
viability, T/C (second compound 10 µM, first compound 0.1 µM): 98.3%
viability, T/C (second compound 10 µM, first compound 0.316 µM): 71.1%
viability, T/C (second compound 10 µM, first compound 1 µM): 86.9%
viability, T/C (second compound 10 µM, first compound 3.16 µM): 88%
viability, T/C (second compound 10 µM, first compound 10 µM): 72.4%
